# Source: paper PMC7168327, “Designed Antimicrobial Peptides for Topical Treatment of Antibiotic Resistant Acne Vulgaris” (Antibiotics, 2020)
# Entries after “also recorded” stand apart in the source; their conditions may differ. Bridge positions count the residues as written; N and C are the ends. Peptide text beside a SMILES is read from it.
# Key:
# [1] = test system: C. acnes HL043PA2 compared to human keratinocytes; assay type: cell-based
# Experimental: In evaluating the clinical utility of each of the candidate dAMPs for C. acnes treatment, the Therapeutic Index was determined. The Therapeutic Index is defined as the ratio of concentration at which the dAMP is active against the prokaryotic C. acnes pathogen without inducing cytotoxic damage to the surrounding mammalian cells. The EC10 and EC50 doses, defined as the concentrations required to kill 10% and 50% respectively of human keratinocytes following 8 h incubation with each of the Riptide dAMPs, are tabulated and graphed in Table 2 and Figure 3, respectively. The larger the Therapeutic Index, the greater the specificity of the dAMP for destroying C. acnes cells.
# Single colonies were inoculated in Reinforced Clostridium Medium (RCM) broth supplemented with sodium thioglycolate and incubated at 37 °C, with shaking at 200 rpm, for 2 or 3 days to reach logarithmic growth (OD600nm = 1.0). Each C. acnes (1 × 10^6 CFU per mL) was incubated with dAMP or clindamycin at two-fold serial dilutions (0.5–32 μg per mL) in RCM on a 96-well microplate for 48 h. Three replicas were included for each test article concentration. Bacterial growth was measured by optical density at 600 nm to determine the MIC for each dAMP applied.
# Noninvasive and real-time monitoring of mammalian cytotoxicity to assess the potential skin toxicity of the dAMPs was evaluated using bioluminescent human immortalized keratinocytes (HaCaT, AddexBio, San Diego, CA, USA). The bioluminescent variant of HaCaT was constructed by transfection with a luciferase gene (RediFect Red-Fluc-Puromycin, Cat# CL596002). Keratinocytes (1 × 10^4 cells, 100 μL) were plated in 96-well black-walled plates. The candidate dAMPs were 2-fold serially diluted from 1024 µg/mL in growth medium supplemented with 150 µg/mL D-luciferin. Each concentration was performed in triplicate, with the final volume being 200 μL. Imaging was performed at select times (0, 15, and 30 min and 1, 3, 5, and 8 h) after the addition of the dAMP, and compared to concurrently run vehicle-control, using an IVIS Lumina imaging system (Caliper Life Sciences, Inc., Hopkinton, MA, USA). For imaging, the 96-well plate was positioned on the stage (12.5-cm field of view), with an open emission filter, binning of 4, and f-stop 1 and a 1-min exposure time. Data analysis was performed using the Living Image software program (version 4.3, Caliper Life Sciences, Inc.). The dAMP concentrations required to kill 10% and 50% of keratinocytes were determined using GraphPad Prism 7 (GraphPad Software, San Diego, CA, USA).
# C. acnes HL043PA2 = test: Multidrug-resistant C. acnes intradermal murine infection model; assay type: in vivo; conditions: topical 25 μL, BALB/c mice; for mean bacterial burden in skin (CFU/g): 7 applications 2–74 h post infection, skin harvested at 96 h, n = 6
# Experimental: All animals received care in compliance with the Guide for the Care and Use of Laboratory Animals (8th Edition, National Institutes of Health Publication, 2011). All studies were approved by the Institutional Animal Care and Use Committee. Female BALB/c mice, 5 to 7 weeks, were obtained from Envigo Laboratories Inc (Indianapolis, IN, USA). General anesthesia consisted of an intraperitoneal injection of ketamine 100 mg/kg and xylazine 10 mg/kg (Vedco, Inc., St. Joseph, MO, USA).
# Mice were inoculated via intradermal (ID) injection of the antibiotic-resistant C. acnes HL043PA2 (7.0 log10 CFU, 50 μL, BEI Resources, HM-514, [14]). The day prior to infection, each mouse was anesthetized using isoflurane, and an area of approximately 1″ × 1″ of skin on the dorsal area of each mouse was shaved and cleared of hair using the depilatory agent Nair®. Beginning 2 h after infection, mice were anesthetized and RP556, formulated in 2% hydroxypropyl methylcellulose in water, viscosity 3000–5600 cP, or 40 mg/mL clindamycin (4%) was administered topically, at 25 μL twice daily for a total of 7 applications (2, 14, 26, 38, 50, 62 and 74 h post infection). Abscesses were harvested at 96 h post-challenge (or Day 7 for untreated control) and assessed for bacterial CFU per gram of skin tissue.
compound,measurement,setting,value
"CC[C@H](C)[C@@H]1NC(=O)CNC(=O)[C@H](CCCCN)NC(=O)[C@H](Cc2ccc(O)cc2)NC(=O)[C@@H]2CSSC[C@H](NC1=O)C(=O)N[C@@H](Cc1ccc(O)cc1)C(=O)N[C@@H](CCCCN)C(=O)N[C@@H](CCCCN)C(=O)N[C@H](C(=O)N[C@@H](CCCCN)C(N)=O)CSSC[C@H](NC(=O)[C@H](Cc1c[nH]c3ccccc13)NC(=O)[C@@H](N)CCCNC(=N)N)C(=O)N[C@@H](Cc1ccccc1)C(=O)N[C@@H](CCCCN)C(=O)N[C@@H](C(C)C)C(=O)N2 [RP556] (H-RWCFKVCYKGICYKKCK-NH2; disulfide 3-16, 7-12)",Therapeutic Index (EC10 / MIC),[1]; keratinocyte EC10 (8 h) versus MIC against HL043PA2 C. acnes,70
same,Therapeutic Index (EC50 / MIC),[1]; keratinocyte EC50 (8 h) versus MIC against HL043PA2 C. acnes,130
same,mean bacterial burden in skin (CFU/g),C. acnes HL043PA2; RP556 5 mg/mL (0.5%) in 2% hydroxypropyl methylcellulose,below the detectable limit; also recorded: completely eliminated C. acnes infection
same,mean bacterial burden in skin (CFU/g),C. acnes HL043PA2; RP556 20 mg/mL in 2% hydroxypropyl methylcellulose,below the detectable limit
same,clinical observations and body weight following treatment,"C. acnes HL043PA2; 5 and 20 mg/mL, 7 applications",no untoward clinical observations or changes in body weight
